The values below come from patent US10947234B2, “PRMT5 inhibitors” (Merck Sharp & Dohme Corp., priority 2017, dated 2021).

Assay [1] has as its target Full-length (FL)-PRMT5-MEP50 enzyme complex (Homo sapiens (Human), UniProt O14744). The assay is described as follows: PRMT5-MEP50 Enzyme Methylation Assay. The format is biochemical. The conditions noted are these: biotinylated H4R3(Me1) peptide, 15 μM SAM, top compound concentration 100000 nM. As to the method:
PRMT5-MEP50 Enzyme Methylation Assay
PRMT5/MEP50 biochemical assay is a direct measurement of the methylation activity of the enzyme complex on a short peptide substrate derived from the N-terminus of H4 histone. Methylation experiment is performed with recombinant protein. The assessment of inhibitory effect (IC50) of small molecules is measured by the effectiveness of the compounds to inhibit this reaction.
To each well of a white ProxiPlus 384 well-plate, 100 nL of compound (1% DMSO in final assay volume of 10 μL) was dispensed, followed by the addition of 8 μL of 1× assay buffer (50 mM Bicine pH 8.0, 1 mM DTT, 0.004% Tween20, 0.01% BSA) containing 0.5 nM of Full-length (FL)-PRMT5-MEP50 enzyme complex (recombinant proteins from baculovirus-transfected Sf21 cells: FL-PRMT5; MW=[…] and FL-MEP50; MW=38614). Plates were sealed and placed in a 37° C. humidified chamber for 30 minutes pre-incubation with compounds. Subsequently, each reaction was initiated by the addition of 2 μL 1× assay buffer containing 75 nM biotinylated H4R3(Me1) peptide, and 15 μM S-(5′-Adenosyl)-L-Methionine Chloride (SAM). The final reaction in each well of 10 μL consists of 0.5 nM PRMT5-MEP50, 75 nM biotinylated-peptide, and 15 μM. Methylation reactions were allowed to proceed for 150 minutes in a sealed plate at 37° C. Reactions were immediately quenched by the addition of 1 μL of 10% formic acid. Plates were then frozen and shipped to SAMDI™ Tech Inc. to determine the percent conversion from […]. IC50 values were determined by 7 parameters biphasic fit model plotting the percent product conversion vs. (Log10) compound concentrations.

In assay [2] the target is PRMT5 (Homo sapiens (Human), UniProt O14744). The assay is described as follows: PRMT5 Cell Target Engagement (TE) Assay. The settings on record: MCF-7 cells, 3 days treatment, nuclear SDMA by high content imaging; top compound concentration 10000 nM. Format: cell-based. From the text:
PRMT5 Cell Target Engagement (TE) Assay
The PRMT5 TE assay is a biomarker assay for identifying compounds that inhibit symmetric dimethylation of arginine (SDMA) of PRMT5 substrates. This assay detects symmetrically dimethylated nuclear proteins using high content imaging technology. Detection of the expression of symmetrically dimethylated nucleo proteins is through a mixture of primary rabbit monoclonal antibodies to SDMA (CST 13222), which in turn recognized by an Alexafluor 488 dye-conjugated anti-rabbit IgG secondary antibody. The IN Cell Analyzer 2200 measures nuclear Alexafluor 488 fluorescent dye intensity that is directly related to the level of expression of symmetrically dimethylated nuclear proteins at the single cell level. Nuclear AF488 dye intensities are compared to the mean value for DMSO treated cells […] to report percent of inhibition for each compound-treated well.
Each well of a BD falcon collagen coated black/clear bottom 384-well plate was seeded with 4000 MCF-7 cells and allowed to attach for 5 hours. Media from cell plate was removed at 0.5 mm above the bottom of the plate and replaced with 30 μL of fresh media containing 1.2× compounds in 0.1% DMSO. Cells were treated for 3 days in 37° C. CO2 incubator. On day 3, cells were fixed with Cytofix, permeablized with 0.4% Triton-X-100/Cytofix, and washed with D-PBS without Ca/Mg. Cells were blocked with Licor Odessey blocking reagent for one hour at room temperature, followed by incubation with anti-SDMA (1:1000) antibody at 4° C. overnight. 1° antibody was removed, followed by three washings with DPBS without Ca/Mg and 0.05% Tween20. Hoechst (5 μg/ml), Cell Mask deep stain (1:2000) and Alexa488-conjugated goat anti-rabbit IgG (2 μg/mL) was added for 1 hour at room temperature. A final washing step (three washes) was performed before sealing plate for imaging on In Cell Analyzer 2200. Images from analyzer were uploaded to Columbus (at WP) for image analysis. IC50 values were determined by 4 parameters robust fit of percent fluorescence units vs. (Log10) compound concentrations.

Where [3] appears, read: first IC50 of 7 parameters biphasic fit, read-out: Enzyme Methylation Assay IC50_1.
[4] abbreviates: second IC50 of 7 parameters biphasic fit, read-out: Enzyme Methylation Assay IC50_2.

Where two headings read alike, the source gives them in different places. A value given as a limit tells only on which side of the number the result lay.

Sequence of Full-length (FL)-PRMT5-MEP50 enzyme complex (O14744 whole entry): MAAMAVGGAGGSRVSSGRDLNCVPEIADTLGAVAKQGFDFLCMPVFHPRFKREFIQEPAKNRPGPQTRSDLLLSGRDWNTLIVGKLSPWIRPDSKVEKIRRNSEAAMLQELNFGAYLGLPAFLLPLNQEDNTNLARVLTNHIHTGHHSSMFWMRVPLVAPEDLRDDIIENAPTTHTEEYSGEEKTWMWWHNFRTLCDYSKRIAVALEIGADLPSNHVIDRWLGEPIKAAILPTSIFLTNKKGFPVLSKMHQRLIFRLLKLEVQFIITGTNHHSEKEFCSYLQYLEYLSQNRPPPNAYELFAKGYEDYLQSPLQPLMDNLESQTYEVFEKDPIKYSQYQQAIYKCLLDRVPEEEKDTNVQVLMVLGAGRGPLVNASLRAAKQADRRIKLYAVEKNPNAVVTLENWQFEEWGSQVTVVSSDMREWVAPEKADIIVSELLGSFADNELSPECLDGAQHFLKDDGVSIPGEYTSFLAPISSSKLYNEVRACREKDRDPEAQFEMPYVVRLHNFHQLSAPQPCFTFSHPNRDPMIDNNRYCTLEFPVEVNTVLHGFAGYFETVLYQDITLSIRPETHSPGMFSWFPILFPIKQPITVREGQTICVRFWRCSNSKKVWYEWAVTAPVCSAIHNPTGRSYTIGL
Sequence of Full-length (FL)-PRMT5-MEP50 enzyme complex (Q9BQA1 whole entry partner): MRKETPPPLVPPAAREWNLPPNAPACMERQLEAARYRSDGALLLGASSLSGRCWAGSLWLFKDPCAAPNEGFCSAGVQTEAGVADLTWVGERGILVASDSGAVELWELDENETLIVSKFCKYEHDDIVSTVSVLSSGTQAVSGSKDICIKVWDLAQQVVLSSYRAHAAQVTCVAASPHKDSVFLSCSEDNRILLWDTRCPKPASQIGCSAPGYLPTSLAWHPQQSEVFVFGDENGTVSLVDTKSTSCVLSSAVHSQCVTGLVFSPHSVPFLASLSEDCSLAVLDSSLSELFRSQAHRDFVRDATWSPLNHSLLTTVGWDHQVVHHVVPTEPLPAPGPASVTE
Sequence of PRMT5 (O14744 whole entry): as the sequence (O14744 whole entry) above
Sequence of PRMT5 (Q9BQA1 whole entry partner): as the sequence (Q9BQA1 whole entry partner) above

For the molecule `CC[C@H]1CN(C[C@@H](O)[C@@H]2Cc3ccccc3CN2)C(=O)c2cc(Cl)ncc21` (single isomer, unassigned) [Example 1], the results for the IC50 in assay [1] (setting [3]) and in assay [1] (setting [4]) were 5.19 µM and at least 100 µM, respectively. Besides, the EC50 in assay [2] is at least 10 µM.

In the case of `CC(=O)N1CCC(Nc2cc3c(cn2)C(C)(C)CN(C[C@@H](O)[C@@H]2Cc4ccccc4CN2)C3=O)CC1` (single isomer, unassigned) [Example 11], the IC50 is 0.0569 µM in assay [1] (setting [3]) and 9.23 µM in assay [1] (setting [4]). Besides, the EC50 in assay [2] stood at 3.89 µM.

Take `CC[C@H]1CN(C[C@@H](O)[C@@H]2Cc3ccccc3CN2)C(=O)c2cc(Cl)ncc21` (single isomer, unassigned) [Example 2]: the IC50 in assay [1] (setting [3]) is 3.83 µM; in assay [1] (setting [4]), at least 100 µM. The molecule further had an EC50 in assay [2] of at least 10 µM.

In the case of `CC[C@H]1CN(C[C@@H](O)[C@@H]2Cc3ccccc3CN2)C(=O)c2cc(NC3CCN(C(C)=O)CC3)ncc21` (single isomer, unassigned) [Example 7], the results for the IC50 in assay [1] (setting [3]) and in assay [1] (setting [4]) were 0.00715 µM and 4.99 µM, respectively. This molecule registered an EC50 in assay [2] of 0.682 µM.

`CC[C@H]1CN(C[C@@H](O)[C@@H]2Cc3ccccc3CN2)C(=O)c2cc(NC3CCN(C(C)=O)CC3)ncc21` (single isomer, unassigned) [Example 8]: the IC50 was found to be 0.0968 µM in assay [1] (setting [3]) and 29.1 µM in assay [1] (setting [4]). In addition, in assay [2], a half-maximal response (EC50) required 3.24 µM.

In the case of `CC[C@H]1CN(C[C@@H](O)[C@@H]2Cc3ccccc3CN2)C(=O)c2cc(Cl)ncc21` (single isomer, unassigned) [Example 3], the figures for the IC50 in assay [1] (setting [3]) and in assay [1] (setting [4]) were 28.3 µM and at least 100 µM, respectively. In assay [2], this molecule registered an EC50 of at least 10 µM.

Turning to `CC[C@H]1CN(C[C@@H](O)[C@@H]2Cc3ccccc3CN2)C(=O)c2cc(NC3CCN(C(C)=O)CC3)ncc21` (single isomer, unassigned) [Example 10], the figures for the IC50 in assay [1] (setting [3]) and in assay [1] (setting [4]) were 0.272 µM and 64.5 µM, respectively. In assay [2], this molecule displayed an EC50 of at least 10 µM.

In the case of `CC(=O)N1CCC(Nc2cc3c(cn2)C(C)(C)CN(C[C@@H](O)[C@@H]2Cc4ccccc4CN2)C3=O)CC1` (single isomer, unassigned) [Example 12], the IC50 in assay [1] (setting [3]) was found to be 0.00153 µM; in assay [1] (setting [4]), 0.631 µM. In assay [2], this molecule displayed an EC50 of 0.102 µM.

In the case of `CC[C@H]1CN(C[C@@H](O)[C@@H]2Cc3ccccc3CN2)C(=O)c2cc(NC3CCN(C(C)=O)CC3)ncc21` (single isomer, unassigned) [Example 9], the IC50 turned out to be 0.00108 µM in assay [1] (setting [3]) and 1.18 µM in assay [1] (setting [4]). In assay [2], this molecule yielded an EC50 of 0.103 µM.

As to `CC[C@H]1CN(C[C@@H](O)[C@@H]2Cc3ccccc3CN2)C(=O)c2cc(Cl)ncc21` (single isomer, unassigned) [Example 4], the IC50 is 42.9 µM in assay [1] (setting [3]) and at least 100 µM in assay [1] (setting [4]). Further, the EC50 in assay [2] is at least 10 µM.

One may read the EC50 as the concentration needed to bring the measured effect to its halfway point. Lower therefore signals a more potent agent.
